{"source": "patent US20190275012A9", "about": "“SUBSTITUTED THIAZOLO-PYRIDINE COMPOUNDS AS MALT1 INHIBITORS” (Lupin Limited, priority 2016, published 2019)", "data": [{"tested_on": "NF-kB transcriptional activity in HEK-293-NF-kB-Luc cell line overexpressing MALT1", "assay": "NF-kB reporter assay (luciferase, MALT1 stably overexpressed)", "format": "cell-based", "conditions": "Homo sapiens, 24 h, HEK-293-NF-kB-Luc cells stably overexpressing MALT1, 24 h treatment, Bright Glo luminescence; read-out: NF-kB inhibition IC50", "protocol": "The NF-⇐B reporter assay was performed to screen for MALT1 inhibition mediated reduction in the NF-⇐B transcriptional activity. For this purpose, MALT1 was stably overexpressed in HEK-293—NF-⇐B-Luc cell line. Cells were seeded in poly-D-lysine coated 96-well plates in a culture medium containing the selection markers (DMEM+10% FBS+50 |g/ml Hygromycin+500 |g/ml Geniticin) and allowed to adhere overnight. On the following day, cells were treated with various concentrations of test compounds for 24 h. After 24 h of treatment with test compounds, media was removed from each well and Bright Glo™ (Promega, USA) substrate was added and incubated for further 10 min at ambient temperature. Luminescence was measured for detection of NF-⇐B reporter activity. RLUs (Relative Luminescence Units) were directly proportional to the NF-⇐B activity. % inhibition of NF-⇐B activity was calculated relative to the samples containing media with 0.1% DMSO alone as per the following formula", "units": {"IC50": "µM"}, "values": [{"smiles": "COc1ncc(NC(=O)Nc2cnc3sc(C)nc3c2C2CC2)cc1C#N", "note": "[Compound 62, 1-(5-Cyano-6-methoxypyridin-3-yl)-3-(7-cyclopropyl-2-methylthiazolo[5,4-b]pyridin-6-yl)urea]", "IC50": "0.101 to 0.5"}, {"smiles": "Cc1nc2c(C3CC3)c(NC(=O)Nc3ccc(-c4nnco4)c(Cl)c3)cnc2s1", "note": "[Compound 63, 1-(3-Chloro-4-(1,3,4-oxadiazol-2-yl)phenyl)-3-(7-cyclopropyl-2-methylthiazolo[5,4-b]pyridin-6-yl)urea]", "IC50": "0.101 to 0.5"}, {"smiles": "COCC1(c2c(NC(=O)Nc3ccc(-n4nccn4)c(Cl)c3)cnc3sc(C)nc23)CC1", "note": "[Compound 64, 1-(3-Chloro-4-(2H-1,2,3-triazol-2-yl)phenyl)-3-(7-(1-(methoxymethyl)cyclopropyl)-2-methylthiazolo[5,4-b]pyridin-6-yl)urea]", "IC50": "0.101 to 0.5"}, {"smiles": "Cc1nc2c(N3CCCOCC3)c(NC(=O)Nc3cnc(-n4nccn4)c(Cl)c3)cnc2s1", "note": "[Compound 67, 1-(5-Chloro-6-(2H-1,2,3-triazol-2-yl)pyridin-3-yl)-3-(2-methyl-7-(1,4-oxazepan-4-yl)thiazolo[5,4-b]pyridin-6-yl)urea]", "IC50": "0.101 to 0.5"}, {"smiles": "COCCN(c1c(NC(=O)Nc2ccc(-n3nccn3)c(Cl)c2)cnc2sc(C)nc12)C1CC1", "note": "[Compound 68, 1-(3-Chloro-4-(2H-1,2,3-triazol-2-yl)phenyl)-3-(7-(cyclopropyl(2-methoxyethyl)amino)-2-methylthiazolo[5,4-b]pyridin-6-yl)urea]", "IC50": "0.101 to 0.5"}, {"smiles": "COc1nc(-n2nccn2)c(Cl)cc1NC(=O)Nc1cnc2sc(C)nc2c1C(OC)C(C)C", "note": "(stereo not drawn) [Compound 81a, 1-(5-Chloro-2-methoxy-6-(2H-1,2,3-triazol-2-yl)pyridin-3-yl)-3-(7-(1-methoxy-2-methylpropyl)-2-methylthiazolo[5,4-b]pyridin-6-yl)urea]", "IC50": "0.001 to 0.1"}, {"smiles": "COC(c1ccccc1)c1c(NC(=O)Nc2ccc(-n3nccn3)c(Cl)c2)cnc2sc(C)nc12", "note": "(stereo not drawn) [Compound 82b, 1-(3-Chloro-4-(2H-1,2,3-triazol-2-yl)phenyl)-3-(7-(methoxy(phenyl)methyl)-2-methylthiazolo[5,4-b]pyridin-6-yl)urea]", "IC50": "0.101 to 0.5"}, {"smiles": "COc1nc(-n2nccn2)c(C(F)(F)F)cc1NC(=O)Nc1cnc2sc(C)nc2c1C(C)OC", "note": "(stereo not drawn) [Compound 88a, 1-(2-Methoxy-6-(2H-1,2,3-triazol-2-yl)-5-(trifluoromethyl)pyridin-3-yl)-3-(7-(1-methoxyethyl)-2-methylthiazolo[5,4-b]pyridin-6-yl)urea]", "IC50": "0.001 to 0.1"}, {"smiles": "Cc1nc2c(N(C)C3CC3)c(NC(=O)Nc3cnc(-n4nccn4)c(C(F)(F)F)c3)cnc2s1", "note": "[Compound 100, 1-(6-(2H-1,2,3-Triazol-2-yl)-5-(trifluoromethyl)pyridin-3-yl)-3-(7-(cyclopropyl(methyl)amino)-2-methylthiazolo[5,4-b]pyridin-6-yl)urea]", "IC50": "0.001 to 0.1"}, {"smiles": "Cc1nc2c(C3(CO)CC3)c(NC(=O)Nc3cnc(-n4nccn4)c(Cl)c3)cnc2s1", "note": "[Compound 105, 1-(5-Chloro-6-(2H-1,2,3-triazol-2-yl)pyridin-3-yl)-3-(7-(1-(hydroxymethyl)cyclopropyl)-2-methylthiazolo[5,4-b]pyridin-6-yl)urea]", "IC50": "0.001 to 0.1"}, {"smiles": "COc1ncc(NC(=O)Nc2cnc3sc(C)nc3c2C2(C)CC2)cc1Cl", "note": "[Compound 117, 1-(5-Chloro-6-methoxypyridin-3-yl)-3-(2-methyl-7-(1-methylcyclopropyl)thiazolo[5,4-b]pyridin-6-yl)urea]", "IC50": "0.001 to 0.1"}, {"smiles": "Cc1ncn(-c2ccc(NC(=O)Nc3cnc4sc(C)nc4c3C3CC3)cc2Cl)n1", "note": "[Compound 173, 1-(3-Chloro-4-(3-methyl-1H-1,2,4-triazol-1-yl)phenyl)-3-(7-cyclopropyl-2-methylthiazolo[5,4-b]pyridin-6-yl)urea]", "IC50": "0.501 to 1.5"}, {"smiles": "Cc1nc2c(C3CC3)c(NC(=O)Nc3ccc(-n4ncnc4C)c(Cl)c3)cnc2s1", "note": "[Compound 174, 1-(3-Chloro-4-(5-methyl-1H-1,2,4-triazol-1-yl)phenyl)-3-(7-cyclopropyl-2-methylthiazolo[5,4-b]pyridin-6-yl)urea]", "IC50": "0.501 to 1.5"}, {"smiles": "COc1ncc(NC(=O)Nc2cnc3sc(C)nc3c2C2CC2)cc1Br", "note": "[Compound 175, 1-(5-Bromo-6-methoxypyridin-3-yl)-3-(7-cyclopropyl-2-methylthiazolo[5,4-b]pyridin-6-yl)urea]", "IC50": "0.501 to 1.5"}, {"smiles": "Cc1nc2c(C3(C)CC3)c(NC(=O)Nc3cnc(-n4nccn4)c(C(F)(F)F)c3)cnc2s1", "note": "[Compound 177, 1-(6-(2H-1,2,3-triazol-2-yl)-5-(trifluoromethyl)pyridin-3-yl)-3-(2-methyl-7-(1-methyleyelopropyl)thiazolo[5,4-b]pyridin-6-yl)urea]", "IC50": "0.001 to 0.1"}, {"smiles": "COc1nc(-n2nccn2)c(Cl)cc1NC(=O)Nc1cnc2sc(C)nc2c1C1(C)CC1", "note": "[Compound 178, 1-(5-Chloro-2-methoxy-6-(2H-1,2,3-triazol-2-yl)pyridin-3-yl)-3-(2-methyl-7-(1-methyleyelopropyl)thiazolo[5,4-b]pyridin-6-yl)urea]", "IC50": "0.001 to 0.1"}, {"smiles": "COc1nc(-n2nccn2)c(Cl)cc1NC(=O)Nc1cnc2sc(C)nc2c1C(C)C", "note": "[Compound 184, 1-(5-Chloro-2-methoxy-6-(2H-1,2,3-triazol-2-yl)pyridin-3-yl)-3-(7-isopropyl-2-methylthiazolo[5,4-b]pyridin-6-yl)urea]", "IC50": "0.001 to 0.1"}, {"smiles": "COc1nc(OC)c(NC(=O)Nc2cnc3sc(C)nc3c2C(C)C)cc1Cl", "note": "[Compound 186, 1-(5-Chloro-2,6-dimethoxypyridin-3-yl)-3-(7-isopropyl-2-methylthiazolo[5,4-b]pyridin-6-yl)urea]", "IC50": "0.501 to 1.5"}, {"smiles": "Cc1nc2c(C(C)C)c(NC(=O)Nc3ccc(-n4nccn4)c(Cl)c3)cnc2s1", "note": "[Compound 188, 1-(3-Chloro-4-(2H-1,2,3-triazol-2-yl)phenyl)-3-(7-isopropyl-2-methylthiazolo[5,4-b]pyridin-6-yl)urea]", "IC50": "0.101 to 0.5"}, {"smiles": "Cc1nc2c(C(C3CC3)N(C)C)c(NC(=O)Nc3cnc(-n4nccn4)c(Cl)c3)cnc2s1", "note": "(stereo not drawn) [Compound 228b, 1-(5-Chloro-6-(2H-1,2,3-triazol-2-yl)pyridin-3-yl)-3-(7-(cyclopropyl(dimethylamino)methyl)-2-methylthiazolo[5,4-b]pyridin-6-yl)urea]", "IC50": "0.001 to 0.1"}, {"smiles": "CCC(c1c(NC(=O)Nc2cnc(-n3nccn3)c(C(F)(F)F)c2)cnc2sc(C)nc12)N1CC(F)(F)C1", "note": "(stereo not drawn) [Compound 229b, 1-(6-(2H-1,2,3-Triazol-2-yl)-5-(trifluoromethyl)pyridin-3-yl)-3-(7-(1-(3,3-difluoroazetidin-1-yl)propyl)-2-methylthiazolo[5,4-b]pyridin-6-yl)urea]", "IC50": "0.001 to 0.1"}, {"smiles": "Cc1nc2c(C(N(C)C)C(F)(F)F)c(NC(=O)Nc3cnc(-n4nccn4)c(C(F)(F)F)c3)cnc2s1", "note": "(stereo not drawn) [Compound 230b, 1-(6-(2H-1,2,3-triazol-2-yl)-5-(trifluoromethyl)pyridin-3-yl)-3-(7-(1-(dimethylamino)-2,2,2-trifluoroethyl)-2-methylthiazolo[5,4-b]pyridin-6-yl)urea]", "IC50": "0.001 to 0.1"}, {"smiles": "Cc1nc2c(C(N(C)C)C(F)(F)F)c(NC(=O)Nc3cnc(-n4nccn4)c(Cl)c3)cnc2s1", "note": "(stereo not drawn) [Compound 231b, 1-(5-Chloro-6-(2H-1,2,3-triazol-2-yl)pyridin-3-yl)-3-(7-(1-(dimethylamino)-2,2,2-trifluoroethyl)-2-methylthiazolo[5,4-b]pyridin-6-yl)urea]", "IC50": "0.001 to 0.1"}, {"smiles": "CCc1nc2c(C(C)OC)c(NC(=O)Nc3cnc(-n4nccn4)c(C(F)(F)F)c3)cnc2s1", "note": "(stereo not drawn) [Compound 232b, 1-(6-(2H-1,2,3-Triazol-2-yl)-5-(trifluoromethyl)pyridin-3-yl)-3-(2-ethyl-7-(1-methoxyethyl)thiazolo[5,4-b]pyridin-6-yl)urea]", "IC50": "0.001 to 0.1"}]}]}
